Measured values as given in patent US12227520B2 (priority 2019, dated 2025).
Read-outs that look alike come from different tables or passages of the source.

Experiments:
[1] = Cytotoxicity assay in MT-4 cells; type: cell-based, human; settings: human, uninfected MT-4 cells, 5 days incubation; read-out: CC50
Protocol: Each plate contained up to 8 test compounds, with negative (No Drug Control) and 5 μM AZT positive controls. MT-4 cells were pre-infected with 10 μL of either RPMI (mock-infected) or a fresh 1:250 dilution of HIV-1 IIIB concentrated virus stock. Infected and uninfected MT-4 cells were further diluted in complete RPMI media and added to each plate using a Micro Flow dispenser. After 5 days incubation in a humidified and temperature controlled incubator (37° C.), Cell Titer Glo (Promega) was added to the assay plates and chemiluminescence read using an Envision plate-reader. […] Assays were performed as above except uninfected MT-4 cells were added to each well containing test compound. In addition, 10 μM puromycin was added to the last column of each assay plate to assess a base level of cytotoxicity.

HIV-1 (IIIB) = assay: Antiviral assay in MT-4 cells (HIV MT-4 antiviral assay); type: cell-based; settings: HIV-1 (IIIB) in MT-4 cells, 5 days incubation
Protocol: Compounds were tested in a high-throughput 384-well assay format for their ability to inhibit the replication of HIV-1 (IIIB) in MT-4 cells. Compounds were serially diluted (1:3) in DMSO on 384-well polypropylene plates and further diluted 200-fold into complete RPMI media (10% FBS, 1% P/S) using the Biotek Micro Flow and Labcyte ECHO acoustic dispenser. Each plate contained up to 8 test compounds, with negative (No Drug Control) and 5 μM AZT positive controls. MT-4 cells were pre-infected with 10 μL of either RPMI (mock-infected) or a fresh 1:250 dilution of HIV-1 IIIB concentrated virus stock. Infected and uninfected MT-4 cells were further diluted in complete RPMI media and added to each plate using a Micro Flow dispenser. After 5 days incubation in a humidified and temperature controlled incubator (37° C.), Cell Titer Glo (Promega) was added to the assay plates and chemiluminescence read using an Envision plate-reader.

pLai RLuc reporter virus = assay: microbe, parasite or virus in culture; type: cell-based, HIV; settings: Human immunodeficiency virus 1, 72 h
Protocol: To quantify the amount of protein binding to human serum, compounds were serially diluted (1:3) in DMSO and acoustically transferred onto 384-well assay plates via a Labcyte ECHO robot. Each plate contained up to 8 test compounds, including negative and positive controls, (DMSO, 5 μM AZT respectively). Assay plates were prepared in duplicate, and tested in either CCM (cell culture media) or HS/CCM (human serum/cell culture media). MT-4 cells were first pre-infected with pLai RLuc reporter virus for 2 h at 37° C., then further diluted in either CCM (RPMI media, 10% FBS, 1% P/S) or HS/CCM (RPMI media, 10% FBS, 50% HS, 1% P/S), and subsequently added to each plate using a Biotek Micro Flow dispenser. After a 72-h incubation in a humidified and temperature controlled incubator (37° C.), Renilla Glo (Promega) was added to all assay plates and chemiluminescence read using an Envision plate-reader. […] To determine the amount of protein binding, EC50 fold shifts (or EC50 shifts) were calculated by dividing EC50 (HS/CCM)/EC50 (CCM).

[2] = Human immunodeficiency virus 1, IIIB, MT4, 120 h, read-out: EC50

EC50 (HIV-1 (IIIB); [2]) [nM] | Structure (SMILES) | CC50 at 5 days [1] [nM] | EC50 (HIV-1 (IIIB)) [nM] | EC50 (pLai RLuc reporter virus; read-out: Antiviral Serum Shift RLuc 50% HS, HS/CCM (RPMI media, 10% FBS, 50% HS, 1% P/S), 72-h incubation) [nM] | EC50 (pLai RLuc reporter virus; read-out: Antiviral Serum Shift RLuc CCM, CCM (RPMI media, 10% FBS, 1% P/S), 72-h incubation) [nM]
1.3 | O=C(NCc1ccc(F)cc1F)c1cn2c(c(O)c1=O)C(=O)N1CCCC(F)C2C1 (centres unmarked) [Example 13, N-(2,4-difluorobenzyl)-6-fluoro-12-hydroxy-1,11-dioxo-1,4,5,6,7,11-hexahydro-3H-2,7-methanopyrido[1,2-a][1,4]diazonine-10-carboxamide] | 17200 | – | – | –
39.9 | O=C(NCc1c(F)cc(F)cc1F)c1cn2c(c(O)c1=O)C(=O)N1CCc3cc(Cl)ccc3[C@H]2C1 [Example 136-1, (13S)-10-chloro-4-hydroxy-3,5-dioxo-N-(2,4,6-trifluorobenzyl)-3,5,8,13-tetrahydro-7H-6,13-methanobenzo[g]pyrido[1,2-a][1,4]diazonine-2-carboxamide] | 12400 | – | – | –
3.23 | O=C(NCc1ccccc1)c1cn2c(c(O)c1=O)C(=O)N1CCCC[C@H]2C1 [Example 167, (7S)—N-benzyl-12-hydroxy-1,11-dioxo-1,4,5,6,7,11-hexahydro-3H-2,7-methanopyrido[1,2-a][1,4]diazonine-10-carboxamide] | 18700 | – | – | –
36.5 | O=C(NCc1ccc(F)cc1F)c1cn2c(c(O)c1=O)C(=O)N1C[C@@H]2CCc2cc(Cl)ccc21 [Example 49-1, (12S)-2-chloro-N-(2,4-difluorobenzyl)-7-hydroxy-6,8-dioxo-6,8,13,14-tetrahydro-12H-5,12-methanobenzo[e]pyrido[1,2-a][1,4]diazonine-9-carboxamide] | > 15700 | – | – | –
3.36 | Cc1noc2c1CN1C[C@H](C2)n2cc(C(=O)NCc3c(F)cc(F)cc3F)c(=O)c(O)c2C1=O (single isomer, unassigned) [Example 135-1] | > 50000 | – | – | –
535 | O=C(NCc1ccc(F)cc1F)c1cn2c(c(O)c1=O)C(=O)N1C[C@@H]2COc2cc(F)c(F)cc21 [Example 92-1, (6R)—N-(2,4-difluorobenzyl)-10,11-difluoro-1-hydroxy-2,14-dioxo-2,6,7,14-tetrahydro-6,13-methanobenzo[b]pyrido[2,1-f][1,4,7]oxadiazonine-3-carboxamide] | > 50000 | – | – | –
15.1 | C[C@]1(O)CCN2C[C@H](C1)n1cc(C(=O)NCc3c(F)cc(F)cc3F)c(=O)c(O)c1C2=O [Example 107-1, (5S,7S)-5,12-dihydroxy-5-methyl-1,11-dioxo-N-(2,4,6-trifluorobenzyl)-1,4,5,6,7,11-hexahydro-3H-2,7-methanopyrido[1,2-a][1,4]diazonine-10-carboxamide] | > 50000 | – | – | –
9.2 | CO[C@H]1CCN2C[C@H](C1)n1cc(C(=O)NCc3c(F)cc(F)cc3F)c(=O)c(O)c1C2=O [Example 103-2, (5S,7S)-12-hydroxy-5-methoxy-1,11-dioxo-N-(2,4,6-trifluorobenzyl)-1,4,5,6,7,11-hexahydro-3H-2,7-methanopyrido[1,2-a][1,4]diazonine-10-carboxamide] | > 50000 | – | – | –
4.05 | O=C(NCc1ccc(F)cc1Cl)c1cn2c(c(O)c1=O)C(=O)N1CCCC[C@H]2C1 [Example 152, (7S)—N-(2-chloro-4-fluoro-benzyl)-12-hydroxy-1,11-dioxo-1,4,5,6,7,11-hexahydro-3H-2,7-methanopyrido[1,2-a][1,4]diazonine-10-carboxamide] | 12000 | – | – | –
2.58 | C[C@@]1(F)CCN2C[C@H](C1)n1cc(C(=O)NCc3c(F)cc(F)cc3F)c(=O)c(O)c1C2=O [Example 115-2, (5R,7S)-5-fluoro-12-hydroxy-5-methyl-1,11-dioxo-N-(2,4,6-trifluorobenzyl)-1,4,5,6,7,11-hexahydro-3H-2,7-methanopyrido[1,2-a][1,4]diazonine-10-carboxamide] | 28100 | – | – | –
2.14 | CC1=CC[C@H]2CN(C1)C(=O)c1c(O)c(=O)c(C(=O)NCc3c(F)cc(F)cc3F)cn12 [Example 132-3, (7S)-12-hydroxy-4-methyl-1,11-dioxo-N-(2,4,6-trifluorobenzyl)-1,6,7,11-tetrahydro-3H-2,7-methanopyrido[1,2-a][1,4]diazonine-10-carboxamide] | 24100 | – | – | –
2.79 | CC1CCN2C[C@H](C1)n1cc(C(=O)NCc3c(F)cc(F)cc3F)c(=O)c(O)c1C2=O (stereo partly drawn) [Example 124, (7S)-12-hydroxy-5-methyl-1,11-dioxo-N-(2,4,6-trifluorobenzyl)-1,4,5,6,7,11-hexahydro-3H-2,7-methanopyrido[1,2-a][1,4]diazonine-10-carboxamide] | 15400 | – | – | –
– | O=C(NCc1ccc(F)cc1F)c1cn2c(c(O)c1=O)C(=O)N1CC2CCc2cc(F)ccc21 (single isomer, unassigned) [Example 55-1] | 13000 | > 89.4 | – | –
59.9 | O=C(NCc1ccc(F)cc1F)c1cn2c(c(O)c1=O)C(=O)N1CCCC2CC1 (centres unmarked) [Example 23, N-(2,4-difluorobenzyl)-11-hydroxy-1,10-dioxo-1,3,4,5,6,10-hexahydro-2,6-ethanopyrido[1,2-a][1,4]diazocine-9-carboxamide] | 12000 | – | – | –
8.14 | O=C(NCc1c(F)cc(F)cc1F)c1cn2c(c(O)c1=O)C(=O)N1CCc3ccccc3[C@@H]2C1 (single isomer, unassigned) [Example 63-2] | 14300 | – | – | –
6.9 | O=C(NCc1ccc(F)cc1F)c1cn2c(c(O)c1=O)C(=O)N1CCNCC2C1 (centres unmarked) [Example 30, N-(2,4-difluorobenzyl)-12-hydroxy-1,11-dioxo-1,4,5,6,7,11-hexahydro-3H-2,7-methanopyrido[1,2-a][1,4,7]triazonine-10-carboxamide] | 1660 | – | – | –
7.2 | O=C(NCc1c(F)cc(F)cc1F)c1cn2c(c(O)c1=O)C(=O)N1CCCC(O)C2C1 (centres unmarked) [Example 11, 6,12-dihydroxy-1,11-dioxo-N-(2,4,6-trifluorobenzyl)-1,4,5,6,7,11-hexahydro-3H-2,7-methanopyrido[1,2-a][1,4]diazonine-10-carboxamide] | > 50000 | – | – | –
6.05 | O=C(NCc1ccc(F)c(Cl)c1F)c1cn2c(c(O)c1=O)C(=O)N1C[C@H]2CCCc2ccccc21 [Example 97-2, (6R)—N-(3-chloro-2,4-difluorobenzyl)-1-hydroxy-2,15-dioxo-2,6,7,8,9,15-hexahydro-6,14-methanobenzo[e]pyrido[1,2-a][1,4]diazecine-3-carboxamide] | 16300 | – | – | –
7 | O=C(NCc1ccc(F)cc1F)c1cn2c(c(O)c1=O)C(=O)N1CCOC[C@H]2C1 [Example 29, (7R)—N-(2,4-difluorobenzyl)-12-hydroxy-1,11-dioxo-1,3,4,6,7,11-hexahydro-2,7-methanopyrido[1,2-d][1,4,7]oxadiazonine-10-carboxamide] | > 50000 | – | – | –
56.9 | O=C(NCc1ccc(F)cc1F)c1cn2c(c(O)c1=O)C(=O)N1CCc3cc(F)c(F)cc3[C@@H]2C1 (single isomer, unassigned) [Example 111-2] | 9940 | – | – | –
90.2 | O=C(NCc1c(F)cc(F)cc1F)c1cn2c(c(O)c1=O)C(=O)N1C[C@@H]2CCc2cccc(F)c21 [Example 46-1, (12S)-4-fluoro-7-hydroxy-6,8-dioxo-N-(2,4,6-trifluorobenzyl)-6,8,13,14-tetrahydro-12H-5,12-methanobenzo[e]pyrido[1,2-a][1,4]diazonine-9-carboxamide] | 9240 | – | – | –
– | O=C(NCc1c(F)cc(F)cc1F)c1cn2c(c(O)c1=O)C(=O)N1CC=C(F)C[C@H]2C1 [Example 133, (7S)-5-fluoro-12-hydroxy-1,11-dioxo-N-(2,4,6-trifluorobenzyl)-1,6,7,11-tetrahydro-3H-2,7-methanopyrido[1,2-a][1,4]diazonine-10-carboxamide] | – | – | 1.66 | 0.533
